Experiments:
Type in all cases: in vivo
[1] = system: Echinochloa oryzicola Vasing. (Eo); experiment: Test for herbicidal effect by paddy field soil treatment (Test Example 1); conditions: application amount (active ingredient) 100 g/10 a, examined at the 21st day from the treatment, index per Table 40
Procedure, shortened: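 Scored on a standard scale at day 21 in the greenhouse: herbicidal effect of wettable powder applied to flooded water (3 cm depth) at 100 g a.i./10 ares, one day after sowing Eo into puddled paddy soil.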

rice (Or) = experiment: Test for crop selectivity by paddy field soil treatment (Test Example 4), phytotoxicity to rice; conditions: transplanted two-leaf stage rice, 100 g/10 a active ingredient, 21st day
Method: (§1) [table] <Test Example 4> Test For Crop Selectivity By Paddy Field Soil Treatment A paddy field soil was filled in a plastic pot of 100 cm^2 and subjected to puddling. Seeds of Echinochloa oryzicola Vasing. (Eo) were sowed; two-leaf stage seedlings of rice (Or) were transplanted in a depth of 2 cm; and water was filled in a depth of 3 cm. Next day, wettable powders produced in accordance with the Formulation 1 were diluted with water and dropped on the water surface. The application amount of each wettable powder was 100 g per 10 ares in terms of the active ingredient. Then, breeding was made in a greenhouse. At the 21st day from the treatment, the phytotoxicity and herbicidal effect of each wettable powder were examined in accordance with the standard shown in Table 40.

[2] = system: Echinochloa oryzicola Vasing. (Eo); experiment: Test for crop selectivity by paddy field soil treatment (Test Example 4), herbicidal effect on Eo; conditions: 100 g/10 a active ingredient, 21st day
Method: as §1

[3] = system: Echinochloa crus-galli (L.) Beauv. var. crusgall (Ec); experiment: Test for herbicidal effect by upland field soil treatment (Test Example 2), Ec; conditions: 100 g/10 a active ingredient, examined at 21st day
Procedure, shortened: (§2)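 Pre-emergence soil treatment: wettable powder diluted in water and sprayed on soil just sown with Ec and Se seeds, delivering 100 g active ingredient per 10 ares in 100 liters per 10 ares. Herbicidal effect was rated against a fixed scale 21 days later, after greenhouse growth.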

[4] = system: Setaria viridis (L.) Beauv. (Se); experiment: Test for herbicidal effect by upland field soil treatment (Test Example 2), Se; conditions: 100 g/10 a active ingredient, examined at 21st day
Procedure, shortened: as §2

[5] = system: Echinochloa crus-galli (L.) Beauv. var. crusgalli (Ec); experiment: Test for herbicidal effect by upland foliage treatment (Test Example 3); conditions: 100 g/10 a active ingredient, examined at 14th day
Procedure, shortened: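 Scored 14 days post-spray against a graded standard: greenhouse-grown Ec, 2 weeks old in upland soil, received whole-foliage application of diluted wettable powder (100 g active ingredient per 10 ares, spray volume 100 L per 10 ares).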

Row | SMILES | Herbicidal effect to Eo [1] | Phytotoxicity to Or (rice (Or)) | Herbicidal effect to Eo [2] | Herbicidal effect to Ec [3] | Herbicidal effect to Se [4] | Herbicidal effect to Ec [5]
1 | CCC1(C)CC(S(=O)(=O)Cc2ccc(OC)cc2)=NO1 (centres unmarked) [Compound 1-230] | 5 (A herbicidal effect or phytotoxicity of 90% or more) | 0 (A herbicidal effect or phytotoxicity of 0% to less than 10%) | 5 (A herbicidal effect or phytotoxicity of 90% or more) | – | – | –
2 | CCCC1(C)CC([S+]([O-])Cc2c(F)cccc2F)=NO1 (centres unmarked) [Compound 1-365] | 5 (A herbicidal effect or phytotoxicity of 90% or more) | 1 (A herbicidal effect or phytotoxicity of 10% to less than 30%) | 5 (A herbicidal effect or phytotoxicity of 90% or more) | – | – | –
3 | CC(C)C1(C)CC([S+]([O-])Cc2c(F)cccc2F)=NO1 (centres unmarked) [Compound 1-367] | 5 (A herbicidal effect or phytotoxicity of 90% or more) | 1 (A herbicidal effect or phytotoxicity of 10% to less than 30%) | 5 (A herbicidal effect or phytotoxicity of 90% or more) | – | – | –
4 | CC1(Cc2ccccc2)CC(S(=O)(=O)Cc2c(F)cccc2F)=NO1 (centres unmarked) [Compound 1-377] | 5 (A herbicidal effect or phytotoxicity of 90% or more) | 0 (A herbicidal effect or phytotoxicity of 0% to less than 10%) | 5 (A herbicidal effect or phytotoxicity of 90% or more) | – | – | –
5 | Fc1cccc(F)c1CSC1=NOC2CCCCC12 (centres unmarked) [Compound 1-386] | 4 (A herbicidal effect or phytotoxicity of 70% to less than 90%) | 0 (A herbicidal effect or phytotoxicity of 0% to less than 10%) | 4 (A herbicidal effect or phytotoxicity of 70% to less than 90%) | – | – | –
6 | CC1(COCc2c(F)cccc2F)CC(S(=O)(=O)Cc2c(F)cccc2F)=NO1 (centres unmarked) [Compound 1-401] | 5 (A herbicidal effect or phytotoxicity of 90% or more) | 0 (A herbicidal effect or phytotoxicity of 0% to less than 10%) | 5 (A herbicidal effect or phytotoxicity of 90% or more) | – | – | –
7 | CC1(C(=O)O)CC(SCc2c(F)cccc2F)=NO1 (centres unmarked) [Compound 1-419] | 5 (A herbicidal effect or phytotoxicity of 90% or more) | 1 (A herbicidal effect or phytotoxicity of 10% to less than 30%) | 5 (A herbicidal effect or phytotoxicity of 90% or more) | – | – | –
8 | CCC1(C)CC(S(=O)(=O)CCc2ccccc2)=NO1 (centres unmarked) [Compound 1-456] | 5 (A herbicidal effect or phytotoxicity of 90% or more) | 0 (A herbicidal effect or phytotoxicity of 0% to less than 10%) | 5 (A herbicidal effect or phytotoxicity of 90% or more) | – | – | –
9 | CCC1(C)CC(S(=O)(=O)CCCc2ccccc2)=NO1 (centres unmarked) [Compound 1-457] | 5 (A herbicidal effect or phytotoxicity of 90% or more) | 1 (A herbicidal effect or phytotoxicity of 10% to less than 30%) | 5 (A herbicidal effect or phytotoxicity of 90% or more) | – | – | –
10 | COc1cccc(C)c1CS(=O)(=O)C1=NOC(C)(C)C1 [Compound 1-583] | 5 (A herbicidal effect or phytotoxicity of 90% or more) | – | – | 5 (A herbicidal effect or phytotoxicity of 90% or more) | 5 (A herbicidal effect or phytotoxicity of 90% or more) | 4 (A herbicidal effect or phytotoxicity of 70% to less than 90%)
11 | CCOc1cccc(C(F)(F)F)c1CS(=O)(=O)C1=NOC(C)(C)C1 [Compound 1-585] | 5 (A herbicidal effect or phytotoxicity of 90% or more) | – | – | 5 (A herbicidal effect or phytotoxicity of 90% or more) | 5 (A herbicidal effect or phytotoxicity of 90% or more) | 5 (A herbicidal effect or phytotoxicity of 90% or more)
12 | CCOCc1ccccc1CS(=O)(=O)C1=NOC(C)(C)C1 [Compound 1-586] | 5 (A herbicidal effect or phytotoxicity of 90% or more) | – | – | 5 (A herbicidal effect or phytotoxicity of 90% or more) | 5 (A herbicidal effect or phytotoxicity of 90% or more) | 5 (A herbicidal effect or phytotoxicity of 90% or more)
13 | C=CCOc1ccccc1CS(=O)(=O)C1=NOC(C)(C)C1 [Compound 1-589] | 5 (A herbicidal effect or phytotoxicity of 90% or more) | – | – | 5 (A herbicidal effect or phytotoxicity of 90% or more) | 5 (A herbicidal effect or phytotoxicity of 90% or more) | 4 (A herbicidal effect or phytotoxicity of 70% to less than 90%)
14 | C#CCOc1cccc(Cl)c1CS(=O)(=O)C1=NOC(C)(C)C1 [Compound 1-591] | 5 (A herbicidal effect or phytotoxicity of 90% or more) | – | – | 5 (A herbicidal effect or phytotoxicity of 90% or more) | 5 (A herbicidal effect or phytotoxicity of 90% or more) | 4 (A herbicidal effect or phytotoxicity of 70% to less than 90%)
15 | CCOC(=O)c1ccccc1CS(=O)(=O)C1=NOC(C)(C)C1 [Compound 1-593] | 5 (A herbicidal effect or phytotoxicity of 90% or more) | – | – | 5 (A herbicidal effect or phytotoxicity of 90% or more) | 4 (A herbicidal effect or phytotoxicity of 70% to less than 90%) | 4 (A herbicidal effect or phytotoxicity of 70% to less than 90%)
16 | CC(C)OC(=O)c1ccccc1CS(=O)(=O)C1=NOC(C)(C)C1 [Compound 1-595] | 5 (A herbicidal effect or phytotoxicity of 90% or more) | – | – | 5 (A herbicidal effect or phytotoxicity of 90% or more) | 5 (A herbicidal effect or phytotoxicity of 90% or more) | 4 (A herbicidal effect or phytotoxicity of 70% to less than 90%)
17 | CCOc1cccc(C)c1CS(=O)(=O)C1=NOC(C)(C)C1 [Compound 1-602] | 5 (A herbicidal effect or phytotoxicity of 90% or more) | – | – | 5 (A herbicidal effect or phytotoxicity of 90% or more) | 5 (A herbicidal effect or phytotoxicity of 90% or more) | 4 (A herbicidal effect or phytotoxicity of 70% to less than 90%)
18 | CCCOc1cccc(C)c1CS(=O)(=O)C1=NOC(C)(C)C1 [Compound 1-603] | 5 (A herbicidal effect or phytotoxicity of 90% or more) | – | – | 5 (A herbicidal effect or phytotoxicity of 90% or more) | 5 (A herbicidal effect or phytotoxicity of 90% or more) | 4 (A herbicidal effect or phytotoxicity of 70% to less than 90%)
19 | Cc1cccc(OC(C)C)c1CS(=O)(=O)C1=NOC(C)(C)C1 [Compound 1-604] | 5 (A herbicidal effect or phytotoxicity of 90% or more) | – | – | 5 (A herbicidal effect or phytotoxicity of 90% or more) | 5 (A herbicidal effect or phytotoxicity of 90% or more) | 5 (A herbicidal effect or phytotoxicity of 90% or more)
20 | C=CCOc1cccc(C)c1CS(=O)(=O)C1=NOC(C)(C)C1 [Compound 1-606] | 5 (A herbicidal effect or phytotoxicity of 90% or more) | – | – | 5 (A herbicidal effect or phytotoxicity of 90% or more) | 5 (A herbicidal effect or phytotoxicity of 90% or more) | 4 (A herbicidal effect or phytotoxicity of 70% to less than 90%)
21 | C#CCOc1cccc(C)c1CS(=O)(=O)C1=NOC(C)(C)C1 [Compound 1-607] | 5 (A herbicidal effect or phytotoxicity of 90% or more) | – | – | 5 (A herbicidal effect or phytotoxicity of 90% or more) | 5 (A herbicidal effect or phytotoxicity of 90% or more) | 5 (A herbicidal effect or phytotoxicity of 90% or more)
22 | CC1(C)CC(S(=O)(=O)Cc2ccccc2OCC2CC2)=NO1 [Compound 1-608] | 5 (A herbicidal effect or phytotoxicity of 90% or more) | – | – | 5 (A herbicidal effect or phytotoxicity of 90% or more) | 5 (A herbicidal effect or phytotoxicity of 90% or more) | 5 (A herbicidal effect or phytotoxicity of 90% or more)
23 | CC1(C)CC(S(=O)(=O)Cc2ccccc2OC2CCCC2)=NO1 [Compound 1-609] | 5 (A herbicidal effect or phytotoxicity of 90% or more) | – | – | 5 (A herbicidal effect or phytotoxicity of 90% or more) | 5 (A herbicidal effect or phytotoxicity of 90% or more) | 5 (A herbicidal effect or phytotoxicity of 90% or more)
